Experiments:
[1] = biological target: T1, RNA-dependent DNA polymerase activity of HIV reverse transcriptase (Human immunodeficiency virus type 1 group M subtype B, UniProt P03366); experiment: RNA-dependent DNA polymerase activity assay of HIV reverse transcriptase; type: biochemical, HIV-1; details: 10 μM inhibitor concentration, activity in presence / in absence of analog x 100
T1 construct: made in house
Procedure: In separate representative assays, mappicine analogs were tested for their ability to inhibit the RNA-dependent DNA polymerase activity of HIV reverse transcriptase and for their ability to inhibit the RNase H activity of HIV reverse transcriptase. The assay for RNA-dependent DNA polymerase activity is discussed in Borkow, G. et al., “Inhibition of the Ribonuclease H and DNA Polymerase Activities of HIV-1 Reverse Transcriptase by N-(4-tert-Butylbenzoyl)-2-hydroxy-1-naphthaldehyde Hydrazone,” Biochemistry 1997, 36, 3179-3185, a copy of which is attached hereto and the disclosure of which is incorporated herein by reference. Assays were carried out in the absence and in the presence of mappicine analogs (10 μM final concentration). The results are reported as % residual activity, which is the RNA-dependent DNA polymerase activity of the enzyme in the presence of the mappicine analog divided by the RNA-dependent activity of the enzyme in the absence of the mappicine analog, multiplied by 100.

[2] = biological target: T2, RNase H activity of HIV reverse transcriptase (Human immunodeficiency virus type 1 group M subtype B, UniProt P03366); experiment: Fluorescence (FRET)-based RNase H assay of HIV reverse transcriptase; type: biochemical, HIV-1; details: 10 μM inhibitor concentration, activity in presence / in absence of analog x 100
T2 construct: 2.5 nM of the p51/p66 RT heterodimer in the assay; made in house

| SMILES | Residual activity (%) Polymerase [1] [%] | Residual activity (%) RNase H [2] [%] | further results |
| --- | --- | --- | --- |
| CCCCCCc1c2c(nc3ccc(C)cc13)-c1cc(C(=O)C(C)(C)C)c(C)c(=O)n1C2 [5 (8Cβκ)] | 66 | 95 | – |
| CCCCCCc1c2c(nc3ccc(OC)cc13)-c1cc(C(O)CCC3CCCCC3)c(C)c(=O)n1C2 (centres unmarked) [5 (8Dδ)] | 81 | 63 | – |
| Cc1c(C(O)CCC2CCCCC2)cc2n(c1=O)Cc1c-2nc2ccccc2c1[Si](C)(C)C (centres unmarked) [5 (5Aδ)] | 83 | 78 | – |
| CCCCCCc1c2c(nc3ccccc13)-c1cc(C(O)CC)c(C)c(=O)n1C2 (centres unmarked) [5 (8Aα)] | 42 | 83 | – |
| CCCCCCc1c2c(nc3ccc(OC)cc13)-c1cc(C(=O)C(C)(C)C)c(C)c(=O)n1C2 [5 (8Dβκ)] | 90 | 88 | – |
| CCCCCCc1c2c(nc3ccc(OC)cc13)-c1cc(C(=O)CC)c(C)c(=O)n1C2 [5 (8Dακ)] | 51 | 84 | – |
| CCCCCCc1c2c(nc3ccc(F)cc13)-c1cc(C(O)CC)c(C)c(=O)n1C2 (centres unmarked) [5 (8Bα)] | 57 | 80 | – |
| Cc1c(C(O)C(C)(C)C)cc2n(c1=O)Cc1c-2nc2ccc(F)cc2c1-c1ccccc1 (centres unmarked) [5 (3Bβ)] | 78 | 75 | – |
| Cc1c(C(O)C(C)(C)C)cc2n(c1=O)Cc1c-2nc2ccccc2c1[Si](C)(C)C(C)(C)C (centres unmarked) [5 (4Aβ)] | 71 | 101 | – |
| CCC(=O)c1cc2n(c(=O)c1C)Cc1c-2nc2ccccc2c1-c1ccccc1 [5 (3Aακ)] | 64 | 87 | – |
| Cc1c(C(O)Cc2ccccc2)cc2n(c1=O)Cc1c-2nc2ccccc2c1[Si](C)(C)C(C)(C)C (centres unmarked) [5 (4Aε)] | 83 | 93 | – |
| CCC(O)c1cc2n(c(=O)c1C)Cc1c-2nc2ccc(C)cc2c1-c1ccccc1 (centres unmarked) [5 (3Cα)] | 64 | 96 | – |
| Cc1ccc2nc3c(c([Si](C)(C)C(C)(C)C)c2c1)Cn1c-3cc(C(O)CCC2CCCCC2)c(C)c1=O (centres unmarked) [5 (4Cδ)] | 61 | 109 | – |
| CCCCCCc1c2c(nc3ccc(F)cc13)-c1cc(C(O)C(C)(C)C)c(C)c(=O)n1C2 (centres unmarked) [5 (8Bβ)] | 50 | 97 | – |
| CCC(O)c1cc2n(c(=O)c1C)Cc1c-2nc2ccccc2c1[Si](C)(C)C (centres unmarked) [5 (5Aα)] | – | – | Residual activity (%) Polymerase ([1]; 10 µM): 32%; Residual activity (%) RNase H ([2]; 10 µM): 93% |
| CCC(=O)c1cc2n(c(=O)c1C)Cc1c-2nc2ccccc2c1[Si](C)(C)C(C)(C)C [5 (4Aακ)] | 43 | 76 | – |
| CCC(O)c1cc2n(c(=O)c1C)Cc1c-2nc2ccc(N)cc2c1[Si](C)(C)C (centres unmarked) [5 (AG 3M), 2-Amino-7-(1-hydroxypropyl)-8-methyl-12-trimethylsilanyl-1 1H-indolizino[1,2-b]quinolin-9-one] | – | – | remaining activity at 10 µM ([1]; read-out: Residual activity (%) Polymerase): 123%; remaining activity at 10 µM ([2]; read-out: Residual activity (%) RNase H): 63% |
| Cc1c(C(=O)C(C)(C)C)cc2n(c1=O)Cc1c-2nc2ccccc2c1-c1ccccc1 [5 (3Aβκ)] | 64 | 94 | – |
| CCCCCCc1c2c(nc3ccc(F)cc13)-c1cc(C(O)CCC3CCCCC3)c(C)c(=O)n1C2 (centres unmarked) [5 (8Bδ)] | 90 | 112 | – |
| Cc1c(C(=O)C(C)(C)C)cc2n(c1=O)Cc1c-2nc2ccccc2c1[Si](C)(C)C [5 (5Aβκ)] | 47 | 97 | – |
| COc1ccc2nc3c(c([Si](C)(C)C(C)(C)C)c2c1)Cn1c-3cc(C(=O)C(C)(C)C)c(C)c1=O [5 (4Dβκ)] | 64 | 97 | – |
| CCCCCCc1c2c(nc3ccc(OC)cc13)-c1cc(C(=O)CCC3CCCCC3)c(C)c(=O)n1C2 [5 (8Dδκ)] | 65 | 90 | – |

| SMILES | Residual activity (%) Polymerase [1] [%] | Residual activity (%) RNase H [2] [%] | further results |
| --- | --- | --- | --- |
| COc1ccc2nc3c(c(-c4ccccc4)c2c1)Cn1c-3cc(C(=O)Cc2ccccc2)c(C)c1=O [5 (3Dεκ)] | 73 | 88 | – |
| CCCCCCc1c2c(nc3ccc(OC)cc13)-c1cc(C(O)C(C)(C)C)c(C)c(=O)n1C2 (centres unmarked) [5 (8Dβ)] | 68 | 67 | – |
| CCCCCCc1c2c(nc3ccc(F)cc13)-c1cc(C(O)Cc3ccccc3)c(C)c(=O)n1C2 (centres unmarked) [5 (8Bε)] | 92 | 84 | – |
| Cc1c(C(=O)CCC2CCCCC2)cc2n(c1=O)Cc1c-2nc2ccccc2c1-c1ccccc1 [5 (3Aδκ)] | 66 | 73 | – |
| CCC(=O)c1cc2n(c(=O)c1C)Cc1c-2nc2ccc(OC)cc2c1[Si](C)(C)C [5 (5Dακ)] | 50 | 86 | – |
| CCCCCCc1c2c(nc3ccc(F)cc13)-c1cc(C(=O)C(C)(C)C)c(C)c(=O)n1C2 [5 (8Bβκ)] | 44 | 81 | – |
| Cc1c(C(O)Cc2ccccc2)cc2n(c1=O)Cc1c-2nc2ccc(F)cc2c1[Si](C)(C)C (centres unmarked) [5 (5Bε)] | 49 | 88 | – |
| Cc1c(C(O)CCC2CCCCC2)cc2n(c1=O)Cc1c-2nc2ccccc2c1[Si](C)(C)C(C)(C)C (centres unmarked) [5 (4Aδ)] | 45 | 95 | – |
| Cc1ccc2nc3c(c(-c4ccccc4)c2c1)Cn1c-3cc(C(O)CCC2CCCCC2)c(C)c1=O (centres unmarked) [5 (30δ)] | 74 | 93 | – |
| Cc1c(C(=O)C(C)(C)C)cc2n(c1=O)Cc1c-2nc2ccc(F)cc2c1[Si](C)(C)C [5 (5Bβκ)] | 63 | 100 | – |
| CCCCCCc1c2c(nc3ccc(C)cc13)-c1cc(C(=O)CC)c(C)c(=O)n1C2 [5 (8Cακ)] | 31 | 92 | – |
| CCCCCCc1c2c(nc3ccc(C)cc13)-c1cc(C(O)Cc3ccccc3)c(C)c(=O)n1C2 (centres unmarked) [5 (8Cε)] | 76 | 76 | – |
| Cc1c(C(O)C(C)(C)C)cc2n(c1=O)Cc1c-2nc2ccccc2c1[Si](C)(C)C (centres unmarked) [5 (5Aβ)] | 103 | 77 | – |
| CCCCCCc1c2c(nc3ccc(C)cc13)-c1cc(C(=O)Cc3ccccc3)c(C)c(=O)n1C2 [5 (8Cεκ)] | 66 | 86 | – |
| Cc1ccc2nc3c(c([Si](C)(C)C)c2c1)Cn1c-3cc(C(=O)CCC2CCCCC2)c(C)c1=O [5 (5Cδκ)] | 59 | 99 | – |
| CCC(O)c1cc2n(c(=O)c1C)Cc1c-2nc2ccc(OC)cc2c1[Si](C)(C)C (centres unmarked) [5 (5Dα)] | 88 | 78 | – |
| Cc1ccc2nc3c(c([Si](C)(C)C(C)(C)C)c2c1)Cn1c-3cc(C(=O)C(C)(C)C)c(C)c1=O [5 (4Cβκ)] | 67 | 65 | – |
| CCC(O)c1cc2n(c(=O)c1C)Cc1c-2nc2ccc(F)cc2c1[Si](C)(C)C (centres unmarked) [5 (5Bα)] | 82 | 105 | – |
| CCC(O)c1cc2n(c(=O)c1C)Cc1c-2nc2ccc(C)cc2c1[Si](C)(C)C (centres unmarked) [5 (5Cα)] | 68 | 62 | – |
| CCCCCCc1c2c(nc3ccc(C)cc13)-c1cc(C(O)CC)c(C)c(=O)n1C2 (centres unmarked) [5 (8Cα)] | 84 | 65 | – |
| Cc1c(C(O)CCC2CCCCC2)cc2n(c1=O)Cc1c-2nc2ccc(F)cc2c1-c1ccccc1 (centres unmarked) [5 (3Bδ)] | 81 | 99 | – |

From US20040077674A1, “Mappicine analogs, intermediates in the synthesis of mappicine analogs and methods of synthesis of mappicine analogs” (priority 2002, published 2004)
